The target in assay [1] is T1, Cdk14 (Homo sapiens (Human), UniProt O94921). In words: Cellular pull down with biotinylated probe, CDK14. In kind it is cell-based. Conditions: HEK293 cells overexpressing Cdk14-flag. The procedure:
HEK293 cells overexpressing a Cdk14-flag fusion protein were treated with candidate compounds for 4 hours. Cells were washed with PBS, harvested and lysed in Pierce IP buffer with protease and phosphatase inhibitors (Roche). […] To enhance pulldown, lysates were incubated at room temperature for an additional 2 hours. […] Beads were then washed 3 times with Pierce IP buffer, then boiled at 95° C. for 5 minutes in 2× LDS+10% β-mercaptoethanol. Proteins of interest engaged by the biotinylated compound were then assessed using western blotting.
Target sequence in this assay (O94921 whole entry, the tested form may be a part): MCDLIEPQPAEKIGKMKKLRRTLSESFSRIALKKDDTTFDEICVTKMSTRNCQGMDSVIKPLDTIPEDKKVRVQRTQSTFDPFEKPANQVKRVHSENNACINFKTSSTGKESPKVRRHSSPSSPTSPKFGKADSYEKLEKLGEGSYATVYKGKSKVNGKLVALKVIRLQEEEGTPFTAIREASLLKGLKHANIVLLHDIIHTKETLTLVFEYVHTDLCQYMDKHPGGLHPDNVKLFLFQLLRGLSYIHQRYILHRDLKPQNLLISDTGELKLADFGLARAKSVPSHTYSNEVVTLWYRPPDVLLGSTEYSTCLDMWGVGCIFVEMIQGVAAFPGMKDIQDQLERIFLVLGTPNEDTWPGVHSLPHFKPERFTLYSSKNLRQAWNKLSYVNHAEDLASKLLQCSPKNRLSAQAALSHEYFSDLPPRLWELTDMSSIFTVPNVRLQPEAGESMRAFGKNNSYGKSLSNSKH

The target of another assay is CDK2/CycA (Homo sapiens (Human), UniProt P24941). Kind of assay: Z'LYTE kinase assay for CDK2/CycA at Km ATP. It counts as biochemical. Conditions: read-out: IC50 CDK2 Z′LYTE kinase assay.
In a further assay the target is CDK16/CycY (Homo sapiens (Human), UniProt Q00536). In words: Lanthascreen Eu kinase binding assay for CDK16/CycY. Conditions: read-out: IC50 CDK16 Lanthascreen binding. The procedure:
Lanthascreen Eu kinase binding assays were conducted for CDK16/CycY at Life Technologies.
In general terms: TR-FRET usually uses a lanthanide donor and a delayed reading to cut background.

The test system of a further assay is HCT116 cells. Kind of assay: Antiproliferation assay, Cell Titer Glo, 72 hours. In kind it is cell-based. Conditions: Homo sapiens, HCT-116, 72 h. Summed up:
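HCT116 cells seeded at 750 cells/well in McCoy's 5A with 10% FBS and exposed to four-fold compound dilution series for 72 h at 37 °C, 5% CO2. Viability by CellTiter-Glo luminescence, quadruplicate; IC50 by non-linear regression.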

For assay [2], the target named is T1, Cdk14. Kind of assay: Cdk14 33P kinase assay (Reaction Biology Corp.). In kind it is biochemical.
Target sequence in this assay (O94921 whole entry, looked up, the tested form may be a part): as the sequence (O94921 whole entry, the tested form may be a part) above
Target sequence in this assay (Q8ND76 whole entry partner, looked up, the tested form may be a part): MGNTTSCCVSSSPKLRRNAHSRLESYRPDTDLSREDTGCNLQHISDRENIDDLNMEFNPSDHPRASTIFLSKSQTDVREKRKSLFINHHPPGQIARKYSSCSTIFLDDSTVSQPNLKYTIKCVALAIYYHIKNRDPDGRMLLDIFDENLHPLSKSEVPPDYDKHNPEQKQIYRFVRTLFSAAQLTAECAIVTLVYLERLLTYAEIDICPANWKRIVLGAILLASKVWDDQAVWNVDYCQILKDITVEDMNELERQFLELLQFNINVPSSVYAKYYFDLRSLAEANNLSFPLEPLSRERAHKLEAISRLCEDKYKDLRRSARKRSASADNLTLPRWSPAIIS
The target of another assay is Cdk14/CycY (Homo sapiens (Human), UniProt O94921). In words: Lanthascreen Eu kinase binding assay for Cdk14/CycY with 30 minute pre-incubation. Conditions: 30 minute pre-incubation of kinase with compound; read-out: IC50 CDK14 binding by Lanthascreen. On the procedure:
Lanthascreen Eu kinase binding assays were conducted for Cdk14/CycY largely as performed in the commercial assay service by Life Technologies, but included a 30 minute pre-incubation step of the kinase with candidate compounds to facilitate covalent bond formation.

Where [3] appears, read: 4 hours treatment, some cells print Y or N instead of a concentration.

Chain of Cdk14/CycY (O94921 whole entry): as the sequence (O94921 whole entry, the tested form may be a part) above
Chain of Cdk14/CycY (Q8ND76 whole entry partner): as the sequence (Q8ND76 whole entry partner, looked up, the tested form may be a part) above
Chain of CDK16/CycY (Q00536 whole entry): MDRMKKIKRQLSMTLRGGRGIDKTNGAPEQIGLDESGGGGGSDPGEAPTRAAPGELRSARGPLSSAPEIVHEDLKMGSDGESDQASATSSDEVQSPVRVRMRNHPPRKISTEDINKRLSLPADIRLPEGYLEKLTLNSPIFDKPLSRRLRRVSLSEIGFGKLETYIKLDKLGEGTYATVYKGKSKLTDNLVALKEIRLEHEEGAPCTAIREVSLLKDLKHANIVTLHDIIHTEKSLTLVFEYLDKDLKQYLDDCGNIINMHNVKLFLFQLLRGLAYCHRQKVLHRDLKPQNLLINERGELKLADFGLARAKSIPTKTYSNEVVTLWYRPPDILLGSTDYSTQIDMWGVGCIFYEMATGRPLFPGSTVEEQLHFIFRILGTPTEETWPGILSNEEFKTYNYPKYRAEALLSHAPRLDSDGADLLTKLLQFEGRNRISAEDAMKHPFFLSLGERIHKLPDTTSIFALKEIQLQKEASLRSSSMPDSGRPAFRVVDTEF
Chain of CDK16/CycY (Q8ND76 whole entry partner): as the sequence (Q8ND76 whole entry partner, looked up, the tested form may be a part) above

On to `C=CC(=O)Nc1cccc(C(=O)N2CCC(NC(=O)c3n[nH]cc3NC(=O)c3c(Cl)cccc3Cl)CC2)c1` [FMF-03-196-1, N-(1-(3-acrylamidobenzoyl)piperidin-4-yl)-4-(2,6-dichlorobenzamido)-1H-pyrazole-3-carboxamide], for which the “Cellular Potency by Pulldown” value at Cdk14 [1] (setting [3]) was determined as 1000 nM. The concentration for half-maximal inhibition (IC50) on CDK2/CycA came out at 3.4 nM; at CDK16/CycY it was 11.4 nM; in the assay on HCT116 cells, 32 nM; at Cdk14 [2] it was 36.5 nM; on Cdk14/CycY, 45 nM.

On to `CN(C)C/C=C/C(=O)Nc1ccc(S(=O)(=O)N2CCC(NC(=O)c3n[nH]cc3NC(=O)c3c(Cl)cccc3Cl)CC2)cc1` [FMF-03-197-2, (E)-4-(2,6-dichlorobenzamido)-N-(1-((4-(4-(dimethylamino)but-2-enamido)phenyl)sulfonyl)piperidin-4-yl)-1H-pyrazole-3-carboxamide], for which the IC50 on CDK2/CycA turned out to be 2.8 nM; at CDK16/CycY, 1.2 nM; in the assay with HCT116 cells, 23 nM; on Cdk14 [2], 42.8 nM; at Cdk14/CycY, 2.6 nM.

`CN(C)C/C=C/C(=O)Nc1ccc(CN2CCC(NC(=O)c3n[nH]cc3NC(=O)c3c(Cl)cccc3Cl)CC2)cc1` [FMF-03-199-2, (E)-4-(2,6-dichlorobenzamido)-N-(1-(4-(4-(dimethylamino)but-2-enamido)benzyl)piperidin-4-yl)-1H-pyrazole-3-carboxamide]: the IC50 on CDK2/CycA is 24 nM; on CDK16/CycY it was 18.2 nM; in the assay with HCT116 cells it was 2.6 nM; on Cdk14 [2], 786 nM; at Cdk14/CycY, 14 nM.

For the compound `C=CC(=O)Nc1cccc(C(=O)Nc2ccc(NC(=O)c3n[nH]cc3NC(=O)c3c(Cl)cccc3Cl)cc2)c1` [FMF-03-205-1, N-(4-(3-acrylamidobenzamido)phenyl)-4-(2,6-dichlorobenzamido)-1H-pyrazole-3-carboxamide], the “Cellular Potency by Pulldown” value on Cdk14 [1] (setting [3]) is 500 nM. The half-maximal inhibitory concentration (IC50) in the assay with HCT116 cells worked out at 6 nM; on Cdk14/CycY it was 1010 nM.

With `CN(C)C/C=C/C(=O)Nc1cccc(C(=O)Nc2ccc(NC(=O)c3n[nH]cc3NC(=O)c3c(Cl)cccc3Cl)cc2)c1` [FMF-03-206-1, (E)-4-(2,6-dichlorobenzamido)-N-(4-(3-(4-(dimethylamino)but-2-enamido)benzamido)phenyl)-1H-pyrazole-3-carboxamide], the “Cellular Potency by Pulldown” value at Cdk14 [1] (setting [3]) is 1000 nM. Also, the half-inhibitory concentration (IC50) at CDK2/CycA was 22.4 nM; on CDK16/CycY, 56.8 nM; with HCT116 cells, 37 nM; at Cdk14 [2], 342 nM; on Cdk14/CycY, 17 nM.

On to `CN(C)C/C=C/C(=O)Nc1ccc(C(=O)Nc2ccc(NC(=O)c3n[nH]cc3NC(=O)c3c(Cl)cccc3Cl)cc2)cc1` [FMF-04-012-2, (E)-4-(2,6-dichlorobenzamido)-N-(4-(4-(4-(dimethylamino)but-2-enamido)benzamido)phenyl)-1H-pyrazole-3-carboxamide], for which the IC50 at CDK2/CycA is 52.8 nM; at CDK16/CycY, 111 nM; with HCT116 cells, 14 nM; at Cdk14 [2], 560 nM; on Cdk14/CycY it was 68 nM.

Consider `C=CC(=O)Nc1cccc(S(=O)(=O)N2CCC(NC(=O)c3n[nH]cc3NC(=O)c3c(F)cc(F)cc3F)CC2)c1` [FMF-04-095-1, N-(1-((3-acrylamidophenyl)sulfonyl)piperidin-4-yl)-4-(2,4,6-trifluorobenzamido)-1H-pyrazole-3-carboxamide], for which the IC50 at CDK2/CycA is 7.5 nM; with HCT116 cells, 7 nM; against Cdk14 [2], more than 1000 nM; at Cdk14/CycY, 122 nM.

Take `C=CC(=O)Nc1cccc(S(=O)(=O)N2CCC(NC(=O)c3n[nH]cc3NC(=O)c3c(F)cccc3F)CC2)c1` [FMF-04-096-1, N-(1-((3-acrylamidophenyl)sulfonyl)piperidin-4-yl)-4-(2,6-difluorobenzamido)-1H-pyrazole-3-carboxamide]: the IC50 in the assay on HCT116 cells was 114 nM; against Cdk14 [2], 284 nM; on Cdk14/CycY it was more than 1000 nM.

As for `C=CC(=O)Nc1cccc(S(=O)(=O)N2CCC(NC(=O)c3n[nH]cc3NC(=O)c3c(F)cccc3OC)CC2)c1` [FMF-04-097-1, N-(1-((3-acrylamidophenyl)sulfonyl)piperidin-4-yl)-4-(2-fluoro-6-methoxybenzamido)-1H-pyrazole-3-carboxamide], the half-maximal inhibitory concentration (IC50) is 9 nM with HCT116 cells, 88 nM at Cdk14 [2] and 1.6 nM on Cdk14/CycY.

On to `C=CC(=O)Nc1cccc(S(=O)(=O)N2CCC(NC(=O)c3n[nH]cc3NC(=O)c3c(Cl)ccc(OC)c3Cl)CC2)c1` [FMF-04-184-1, N-(1-((3-acrylamidophenyl)sulfonyl)piperidin-4-yl)-4-(2,6-dichloro-3-methoxybenzamido)-1H-pyrazole-3-carboxamide], for which the “Cellular Potency by Pulldown” value on Cdk14 [1] (setting [3]) amounted to 100 nM. The IC50 is less than 1 nM with HCT116 cells and 0.4 nM on Cdk14/CycY.

In the case of `COc1ccc(Cl)c(C(=O)Nc2c[nH]nc2C(=O)NC2CCN(S(=O)(=O)c3cccc(NC(=O)/C=C/CN(C)C)c3)CC2)c1Cl` [FMF-04-184-2, (E)-4-(2,6-dichloro-3-methoxybenzamido)-N-(1-((3-(4-(dimethylamino)but-2-enamido)phenyl)sulfonyl)piperidin-4-yl)-1H-pyrazole-3-carboxamide], the “Cellular Potency by Pulldown” value at Cdk14 [1] (setting [3]) is reported as 100 nM. In addition, the IC50 on CDK2/CycA worked out at 3.5 nM; at CDK16/CycY it was 1.8 nM; in the assay on HCT116 cells, 23 nM; on Cdk14/CycY it was 6.4 nM.

Turning to `C=CC(=O)Nc1cccc(S(=O)(=O)N2CCC(NC(=O)c3n[nH]cc3NC(=O)c3c(OC)cc(OC)cc3OC)CC2)c1` [FMF-05-028-1, N-(1-((3-acrylamidophenyl)sulfonyl)piperidin-4-yl)-4-(2,4,6-trimethoxybenzamido)-1H-pyrazole-3-carboxamide], the “Cellular Potency by Pulldown” value at Cdk14 [1] (cell prints LOW (>1 uM)) is “LOW (>1 uM)”. In addition, the IC50 in the assay with HCT116 cells was more than 10000 nM; at Cdk14/CycY, 48 nM.

With `CN(C)C/C=C/C(=O)Nc1ccc(CNC(=O)c2n[nH]cc2NC(=O)c2c(Cl)cccc2Cl)cc1` [FMF-05-064-2, (E)-4-(2,6-dichlorobenzamido)-N-(4-(4-(dimethylamino)but-2-enamido)benzyl)-1H-pyrazole-3-carboxamide], the “Cellular Potency by Pulldown” value at Cdk14 [1] (cell prints LOW (>1 μM)) is listed as “LOW (>1 μM)”. Besides, the figures for the IC50 with HCT116 cells and at Cdk14/CycY were 4700 nM and 108 nM, respectively.

For the compound `C=CC(=O)Nc1cccc(CNC(=O)c2n[nH]cc2NC(=O)c2c(Cl)cccc2Cl)c1` [FMF-05-067-1, N-(3-acrylamidobenzyl)-4-(2,6-dichlorobenzamido)-1H-pyrazole-3-carboxamide], the IC50 was 8500 nM in the assay on HCT116 cells and more than 1000 nM on Cdk14 [2].

For `CN(C)C/C=C/C(=O)Nc1cccc(N2CCC(NC(=O)c3n[nH]cc3NC(=O)c3c(Cl)cccc3Cl)CC2)c1` [FMF-05-085-2, (E)-4-(2,6-dichlorobenzamido)-N-(1-(3-(4-(dimethylamino)but-2-enamido)phenyl)piperidin-4-yl)-1H-pyrazole-3-carboxamide], the half-maximal inhibitory concentration (IC50) at CDK2/CycA was 20 nM; on CDK16/CycY, 74.4 nM; in the assay with HCT116 cells it was 427 nM; on Cdk14/CycY, 27 nM.

`COc1ccccc1CC(=O)Nc1c[nH]nc1C(=O)NC1CCN(S(=O)(=O)c2cccc(NC(=O)/C=C/CN(C)C)c2)CC1` [FMF-05-117-1, (E)-N-(1-((3-(4-(dimethylamino)but-2-enamido)phenyl)sulfonyl)piperidin-4-yl)-4-(2-(2-methoxyphenyl)acetamido)-1H-pyrazole-3-carboxamide]: the concentration for half-maximal inhibition (IC50) at CDK2/CycA is 5.71 nM; on CDK16/CycY it was 17 nM; in the assay with HCT116 cells it was 395 nM; on Cdk14/CycY, 14 nM.

As to `COc1cccc(OC)c1C(=O)Nc1c[nH]nc1C(=O)NC1CCN(S(=O)(=O)c2cccc(NC(=O)/C=C/CN(C)C)c2)CC1` [FMF-05-119-1, (E)-4-(2,6-dimethoxybenzamido)-N-(1-((3-(4-(dimethylamino)but-2-enamido)phenyl)sulfonyl)piperidin-4-yl)-1H-pyrazole-3-carboxamide], the half-inhibitory concentration (IC50) is 24.6 nM at CDK2/CycA, 11.3 nM at CDK16/CycY, 4110 nM in the assay on HCT116 cells and 49.5 nM at Cdk14/CycY.

Regarding `COc1cccc(F)c1C(=O)Nc1c[nH]nc1C(=O)NC1CCN(Cc2cccc(NC(=O)/C=C/CN(C)C)c2)CC1` [IHK-01-013-2, (E)-N-(1-(3-(4-(dimethylamino)but-2-enamido)benzyl)piperidin-4-yl)-4-(2-fluoro-6-methoxybenzamido)-1H-pyrazole-3-carboxamide], the IC50 at CDK2/CycA was determined as 53 nM; at CDK16/CycY, 7.4 nM; with HCT116 cells it was 77 nM; at Cdk14/CycY it was 4.2 nM.

The IC50 is the concentration that inhibits the measured activity by half.

The values are drawn from patent publication US12187701B2, “Taire family kinase inhibitors and uses thereof” (Dana-Farber Cancer Institute, Inc., priority 2018, dated 2025).
